This is an account of results in patent US10709692B2, “Isoxazolidine derived inhibitors of receptor interacting protein kinase 1 (RIPK1)” (Denali Therapeutics Inc., priority 2015, dated 2020).

Molecules are shown by their SMILES. Several values for one entry are separate records, joined by “and”; a condition that tells them apart may be missing. Equal values may be shown once.

Test [1] concerns the target T1, receptor interacting protein kinase 1 (GST-hRIPK1 (8-327)) (Homo sapiens, UniProt Q13546).
T1 construct: GST-hRIPK1 (8-327) enzyme was generated by Proteros GmbH by Baculovirus expression system
T1 sequence (Q13546 8-327): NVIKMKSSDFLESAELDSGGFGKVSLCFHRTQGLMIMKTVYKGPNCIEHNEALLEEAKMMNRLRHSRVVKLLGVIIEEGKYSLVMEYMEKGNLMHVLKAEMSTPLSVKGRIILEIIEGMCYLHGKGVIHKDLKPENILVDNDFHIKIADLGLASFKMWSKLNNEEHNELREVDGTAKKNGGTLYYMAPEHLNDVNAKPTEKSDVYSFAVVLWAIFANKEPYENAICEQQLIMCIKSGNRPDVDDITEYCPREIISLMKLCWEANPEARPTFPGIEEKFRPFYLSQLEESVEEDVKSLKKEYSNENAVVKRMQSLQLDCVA
Kind of test: ADP-Glo luminescence assay, RIPK1 autophosphorylation. Format: biochemical. The conditions noted are these: 1.5 μg/mL GST-hRIPK1 (8-327), 50 μM ATP, 3 hours at room temperature. As for the experimental part: Compound potency at receptor interacting protein kinase 1 and selectivity at receptor interacting protein kinase 2 and receptor interacting protein kinase 3 was determined in autophosphorylation mode, using an ADP-Glo luminescence assay, which measures the conversion of ATP to ADP.
(§1) GST-hRIPK1 (8-327) enzyme was generated by Proteros GmbH by Baculovirus expression system. GST-hRIPK2 (1-299) and GST-hRIPK3 (1-518) enzymes were purchased from SignalChem. Test compounds were diluted in DMSO and 0.1 μL of solution was dispensed to each well of a 384-well white solid microplates. The assay buffer was 50 mM HEPES pH 7.5, 50 mM NaCl, 30 mM MgCl2. The buffer was supplemented with 0.02% CHAPS, 0.01% of Pluronic F127, 0.1 mg/mL BSA and 1 mM DTT. Only for receptor interacting protein kinase 1 5 mM MnCl2, was included in the assay buffer on the day of the experiment. The enzymatic reaction consisted of 1.5 μg/mL GST-hRIPK1 (8-327) and 50 μM ATP for receptor interacting protein kinase 1, 0.4 μg/mL GST-hRIPK2 (1-299) and 150 μM ATP, 0.4 μg/mL GST-hRIPK3 (1-518) and 15 μM ATP. 5 μL of enzyme and 5 μL of ATP were added to the plate at twice the final assay concentration and incubated at room temperature for 3 hours. Following this reaction, 10 μL of ADP-Glo reagent (Promega) was added to each well and incubated for 40 minutes at room temperature. This stops the kinase reaction and depletes any remaining ATP. 20 μL of ADP-Glo detection reagent was then added to each well and incubated at room temperature for at least 15 minutes. The detection reagent converts ADP to ATP and introduces luciferase and luciferin to detect ATP. The luminescence is then measured with the Envision (PerkinElmer) plate reader. Test compound inhibition was expressed as percent inhibition of internal assay controls. For concentration response curves, normalized data is fit and pIC50 determined using XL-fit (IDBS) for Excel. The pIC50 were averaged to determine a mean value, for a minimum of two independent experiments.
Certain compounds were tested in the following. Compound potency at receptor interacting protein kinase 1 and selectivity at receptor interacting protein kinase 2 and receptor interacting protein kinase 3 was determined in autophosphorylation mode, using an ADP-Glo luminescence assay (Berger S. B. et al. (2015) Cell Death Discovery, 1: 15009), which measures the conversion of ATP to ADP.
GST-hRIPK1 (8-327) enzyme was generated by Proteros GmbH by Baculovirus expression system.
as §1, with “Test” for “GST-hRIPK1 (8-327) enzyme was generated by Proteros GmbH by Baculovirus expression system. GST-hRIPK2 (1-299) and GST-hRIPK3 (1-518) enzymes were purchased from SignalChem. Test”, “microplate.” for “microplates.”, “comprised” for “consisted of”, “1” for “1, 0.4 μg/mL GST-hRIPK2 (1-299) and 150 μM ATP, 0.4 μg/mL GST-hRIPK3 (1-518)”, “IC50” for “pIC50”, “experiments. […]” for “experiments.”
(ADP-Glo first removes unused ATP, then detects ADP through luciferase.)

For test [2], the target named is T1, receptor interacting protein kinase 1 (GST-hRIPK1 (8-327)). Kind of test: Fluorescent Polarization Binding (FP Binding) assay. The conditions noted are these: 10 nM GST-hRIPK1 (8-327), 5 nM fluorescent-labeled ligand, 30 min at RT. The procedure, abridged: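 Displacement of 5 nM fluorescent ligand from 10 nM GST-hRIPK1 (8-327), 30 min at room temperature in pH 7.5 HEPES buffer, 1% DMSO. Fluorescence polarization read (ex 531/em 595 nm); IC50 fitted from percent inhibition and averaged over at least two independent experiments.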

In general, IC50 refers to the concentration that inhibits the measured activity by half. The low end stands for higher potency, the high end for lower potency. Consider `CC(C)(C)OC(=O)N1OCCC1c1ccccc1` (stereo not shown) [Compound 83, tert-butyl 3-phenylisoxazolidine-2-carboxylate], for which, in test [1], the IC50 lay within 1 to 10 µM.
Consider `CC(C)C(=O)N1OCC[C@H]1c1ccc(F)cc1` [Compound 64, 1-[(3S)-3-(4-Fluorophenyl)-1,2-oxazolidin-2-yl]-2-methylpropan-1-one], for which the IC50 in test [1] and in test [2] was < 1 µM throughout.
As for `O=C(N1OCC[C@H]1c1ccccc1)C1(O)CC1` [Compound 10, 1-[(3S)-3-Phenyl-1,2-oxazolidine-2-carbonyl]cyclopropan-1-ol], in test [1], the IC50 was > 10 µM.
In test [1], `O=C(N1CCCC1)N1OCC[C@H]1c1ccccc1` [Compound 7, (3S)-3-phenyl-2-(pyrrolidine-1-carbonyl)-1,2-oxazolidine] yielded an IC50 of 1 to 10 µM.
`CC1(C(=O)N2OCC[C@H]2c2ccccc2)CC1` [Compound 20, (3S)-2-(1-Methylcyclopropanecarbonyl)-3-phenyl-1,2-oxazolidine]: the IC50 in test [1] and in test [2] was < 1 µM throughout.
As to `CC(C)(O)C(=O)N1OCC[C@H]1c1ccccc1` [Compound 19, 2-Hydroxy-2-methyl-1-[(3S)-3-phenyl-1,2-oxazolidin-2-yl]propan-1-one], the IC50 in test [1] and in test [2] was < 1 µM in each case.
Consider `CC(C)(C)C(=O)N1OCC[C@H]1c1cccc(F)c1` (stereo in doubt) [Compound 23, 1-[3-(3-Fluorophenyl)-1,2-oxazolidin-2-yl]-2,2-dimethylpropan-1-one], for which the IC50 in test [1] and in test [2] was < 1 µM in each case.
With `COCC(=O)N1OCC[C@H]1c1ccccc1` [Compound 13, 2-Methoxy-1-[(3S)-3-phenyl-1,2-oxazolidin-2-yl]ethan-1-one], the IC50 in test [1] fell in the range of 1 to 10 µM.
In the case of `Cc1ncc([C@@H]2CCON2C(=O)C(C)(C)C)cc1F` (single isomer, unassigned) [Compound 97], the IC50 in test [1] and in test [2] was < 1 µM in each case.
Consider `O=C(Nc1ccccc1)N1OCC[C@H]1c1ccccc1` [Compound 4, (3S)—N,3-diphenyl-1,2-oxazolidine-2-carboxamide], for which the IC50 in test [1] and in test [2] was < 1 µM each time.
For the molecule `COC(C)(C)C(=O)N1OCC[C@H]1c1ccccc1` [Compound 80, 2-Methoxy-2-methyl-1-[(3S)-3-phenyl-1,2-oxazolidin-2-yl]propan-1-one], the IC50 in test [1] and in test [2] was < 1 µM throughout.
For the molecule `CC(C)(C)C(=O)N1OCC[C@H]1c1ccccc1F` [Compound 72], the IC50 in test [1] and in test [2] was < 1 µM each time.
`CC(C)(C)C(=O)N1OCCC1c1ccc(F)cc1` (single isomer, unassigned) [Compound 73, 1-[3-(4-Fluorophenyl)-1,2-oxazolidin-2-yl]-2,2-dimethylpropan-1-one]: the IC50 in test [1] and in test [2] was < 1 µM throughout.
Take `Cn1c(C#N)ccc1C(=O)N1OCC[C@@H]1c1ccccc1` [Compound 85, (R)-1-methyl-5-(3-phenylisoxazolidine-2-carbonyl)-1H-pyrrole-2-carbonitrile]: the IC50 in test [1] was > 10 µM.
On to `CC1(C(=O)N2OCC[C@H]2c2ccccc2)COC1` [Compound 8, (3S)-2-(3-Methyloxetane-3-carbonyl)-3-phenyl-1,2-oxazolidine], for which the IC50 in test [1] and in test [2] was < 1 µM each time.
As to `CC(C)(C(=O)N1OCC[C@H]1c1ccc(C#N)cc1)C(F)F` [Compound 88, 4-[(3S)-2-(3,3-difluoro-2,2-dimethylpropanoyl)-1,2-oxazolidin-3-yl]benzonitrile], the IC50 in test [1] was < 1 µM; in test [2], < 1 µM and 0.016 µM.
`CC(C)C(=O)N1OCC[C@H]1c1ccccc1` [Compound 78, 2-Methyl-1-[(3S)-3-phenyl-1,2-oxazolidin-2-yl]propan-1-one]: the IC50 in test [1] and in test [2] was < 1 µM throughout.
`CC(C)(C)OC(=O)N1OCC[C@H]1c1ccccc1` [Compound 22, tert-Butyl (3S)-3-phenyl-1,2-oxazolidine-2-carboxylate]: the IC50 in test [1] lay in the range of 1 to 10 µM.
Take `CC(C)(C)C(=O)N1OCC[C@H]1c1cncc(C#N)c1` [Compound 108, 5-[(3S)-2-(2,2-dimethylpropanoyl)-1,2-oxazolidin-3-yl]pyridine-3-carbonitrile]: the IC50 in test [1] and in test [2] was < 1 µM in each case.
Take `O=C(c1onc2ccccc12)N1OCC[C@H]1c1ccccc1` [Compound 18, 3-[(3S)-3-phenyl-1,2-oxazolidine-2-carbonyl]-2,1-benzoxazole]: the IC50 in test [1] and in test [2] was < 1 µM throughout.
Regarding `Cn1c(C#N)ccc1C(=O)N1OCC[C@H]1c1ccccc1` [Compound 1, 1-Methyl-5-[(3S)-3-phenyl-1,2-oxazolidine-2-carbonyl]-1H-pyrrole-2-carbonitrile], the IC50 in test [1] and in test [2] was < 1 µM each time.
With `Cn1c(C#N)ccc1C(=O)N1OCCC1c1c(F)cccc1Cl` (racemic) [Compound 3, 5-[3-(2-chloro-6-fluorophenyl)-1,2-oxazolidine-2-carbonyl]-1-methyl-1H-pyrrole-2-carbonitrile], the IC50 in test [1] was < 1 µM.
On the same count and under the same terms, for `C[C@@H](O)C(=O)N1OCC[C@H]1c1ccccc1` [Compound 14, (2R)-2-Hydroxy-1-[(3S)-3-phenyl-1,2-oxazolidin-2-yl]propan-1-one] the value was > 10 µM; for `CC(C)(C)NC(=O)N1OCC[C@H]1c1ccccc1` [Compound 5, (3S)—N-tert-Butyl-3-phenyl-1,2-oxazolidine-2-carboxamide], 1 to 10 µM; for `O=C(C1COC1)N1OCC[C@H]1c1ccccc1` [Compound 11, (3S)-2-(Oxetane-3-carbonyl)-3-phenyl-1,2-oxazolidine], 1 to 10 µM.
The same measure, in the same setting: the figure for `CN(C)C(=O)N1OCC[C@H]1c1ccccc1` [Compound 6, (3S)—N,N-dimethyl-3-phenyl-1,2-oxazolidine-2-carboxamide] is 1 to 10 µM; for `CC(C)(C)C(=O)N1OCC[C@@H]1c1ccccc1` [Compound 84, (R)-2,2-dimethyl-1-(3-phenylisoxazolidin-2-yl)propan-1-one] it is > 10 µM; for `O=C(CO)N1OCC[C@H]1c1ccccc1` [Compound 9, 2-hydroxy-1-[(3S)-3-phenyl-1,2-oxazolidin-2-yl]ethan-1-one] it is > 10 µM.
